The record followed here is patent US20110230476A1, “PI3 KINASE INHIBITORS AND USES THEREOF” (AVILA THERAPEUTICS, INC., priority 2009, published 2011).

The structures appear in SMILES notation. “Also recorded” adds a separate entry of the source.

One test concerns SKOV3 cells. Description: GI50 determinations in SKOV3 cells. The test is classed as cell-based. Conditions: Homo sapiens, SK-OV-3. On the procedure: GI50 Determinations in SKOV3 Cells
A standard curve ranging from 10,000 to 50,000 cells was set up in a separate plate and allowed to adhere to the plate for 4-6 hours, at which time the plate was developed using Cell Titer-Glow (Promega, Madison, Wis.) according to manufacturer's instructions.
The next morning, 3-fold compound dilutions ranging from 10,000 nM to 40 nM were prepared in Proliferation Media containing 1% DMSO. 20 ul of each dilution was added to the SKOV3 cells plated the previous day resulting in a dose response curve from 1000 nM to 4 nM. The cells were incubated for 96 hours and then developed with Cell Titer Glo.
The cell numbers at the end of the assay were determined using the standard curve generated at the start of the assay. Growth inhibition was calculated using the following formulas and GI50s were determined by plotting the % growth inhibition vs. Log compound concentration in GraphPad.
%growth=100×(T−T0)/(C−T0)
T=Cell Number at end of assay T0=Cell Number at start of assay (5000) C=Number of cells in DMSO controls at end of assay
%growth inhibition=100−%growth

Test [1] addresses T1, PI3Kα (Homo sapiens, UniProt P42336). Description: Mass spectrometry of intact PI3Kα (Millipore, 14-602), 1 hr incubation. It counts as binding. The arrangement: purchased Millipore 14-602. The settings on record: 10× fold excess of compound, MALDI. On the procedure:
Mass Spectrometry for PI3K
Aliquots (5 μl) of the samples were diluted with 15 μl of 0.2% TFA prior to micro C4 ZipTipping directly onto the MALDI target using Sinapinic acid as the desorption matrix (10 mg/ml in 0.1% TFA:Acetonitrile 50:50).

The target in test [2] is T1, PI3Kα. Description: Trypsin digest and MS-MS analysis of compound-treated PI3Kα. The test is classed as binding. The arrangement: purchased Millipore 14-602. Conditions: in-gel trypsin digest. On the procedure:
(§1) The PI3Kα protein band was then excised and subjected to an in-gel trypsin digest by reducing the protein with DTT, alkylating the thiols with iodoacetamide, and then incubating the protein gel band with trypsin overnight in a 37° C. water bath. The digest was then stopped by addition of trifluoroacetic acid, and peptides were removed from gel band by sonicating with increasing amounts of acetonitrile (0%, 30%, & 60%). Peptides were then purified using C18 ziptips, spotted on the MALDI target plate with α-cyano-4-hydroxycinnamic acid as the desorption matrix (10 mg/ml in 0.1% TFA:Acetonitrile 50:50), and analyzed in reflectron mode.
as §1, with “trifluoro acetic” for “trifluoroacetic”

Another test deals with T2, PI3Kβ (p110β/p85α) (Homo sapiens, UniProt P42338).
T2 construct: purchased BPS Bioscience (San Diego, Calif.) or Millipore (Billerica, Mass.)
T2 sequence (P42338 whole entry): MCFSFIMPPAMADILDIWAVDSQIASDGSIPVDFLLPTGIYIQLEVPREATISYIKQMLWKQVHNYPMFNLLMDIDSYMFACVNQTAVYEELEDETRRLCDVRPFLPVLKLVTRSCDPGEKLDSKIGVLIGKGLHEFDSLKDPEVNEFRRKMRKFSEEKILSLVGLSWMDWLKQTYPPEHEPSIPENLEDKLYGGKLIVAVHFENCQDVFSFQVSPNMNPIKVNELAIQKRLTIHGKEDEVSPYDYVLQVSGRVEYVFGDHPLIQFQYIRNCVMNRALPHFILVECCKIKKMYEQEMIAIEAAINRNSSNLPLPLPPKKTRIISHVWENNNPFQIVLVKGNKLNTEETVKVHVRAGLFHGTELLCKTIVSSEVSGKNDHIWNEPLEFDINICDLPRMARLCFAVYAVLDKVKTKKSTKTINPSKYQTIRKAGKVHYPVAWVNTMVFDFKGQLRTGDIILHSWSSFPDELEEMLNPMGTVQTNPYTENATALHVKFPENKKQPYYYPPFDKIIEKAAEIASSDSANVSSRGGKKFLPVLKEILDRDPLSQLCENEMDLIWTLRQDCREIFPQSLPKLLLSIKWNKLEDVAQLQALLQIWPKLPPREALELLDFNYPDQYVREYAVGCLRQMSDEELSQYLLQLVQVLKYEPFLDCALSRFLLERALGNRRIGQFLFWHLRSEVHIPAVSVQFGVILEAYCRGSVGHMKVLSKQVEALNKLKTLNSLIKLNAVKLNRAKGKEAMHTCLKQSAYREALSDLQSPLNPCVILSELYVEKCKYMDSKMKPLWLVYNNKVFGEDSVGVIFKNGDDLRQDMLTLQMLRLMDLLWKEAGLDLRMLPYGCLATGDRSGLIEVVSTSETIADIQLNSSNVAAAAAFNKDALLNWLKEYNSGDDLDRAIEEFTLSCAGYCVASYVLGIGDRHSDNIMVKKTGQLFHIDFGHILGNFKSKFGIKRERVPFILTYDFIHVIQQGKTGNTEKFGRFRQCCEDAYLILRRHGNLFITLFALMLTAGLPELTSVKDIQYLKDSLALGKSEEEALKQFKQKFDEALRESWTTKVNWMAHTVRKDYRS
T2 sequence (P27986 whole entry partner): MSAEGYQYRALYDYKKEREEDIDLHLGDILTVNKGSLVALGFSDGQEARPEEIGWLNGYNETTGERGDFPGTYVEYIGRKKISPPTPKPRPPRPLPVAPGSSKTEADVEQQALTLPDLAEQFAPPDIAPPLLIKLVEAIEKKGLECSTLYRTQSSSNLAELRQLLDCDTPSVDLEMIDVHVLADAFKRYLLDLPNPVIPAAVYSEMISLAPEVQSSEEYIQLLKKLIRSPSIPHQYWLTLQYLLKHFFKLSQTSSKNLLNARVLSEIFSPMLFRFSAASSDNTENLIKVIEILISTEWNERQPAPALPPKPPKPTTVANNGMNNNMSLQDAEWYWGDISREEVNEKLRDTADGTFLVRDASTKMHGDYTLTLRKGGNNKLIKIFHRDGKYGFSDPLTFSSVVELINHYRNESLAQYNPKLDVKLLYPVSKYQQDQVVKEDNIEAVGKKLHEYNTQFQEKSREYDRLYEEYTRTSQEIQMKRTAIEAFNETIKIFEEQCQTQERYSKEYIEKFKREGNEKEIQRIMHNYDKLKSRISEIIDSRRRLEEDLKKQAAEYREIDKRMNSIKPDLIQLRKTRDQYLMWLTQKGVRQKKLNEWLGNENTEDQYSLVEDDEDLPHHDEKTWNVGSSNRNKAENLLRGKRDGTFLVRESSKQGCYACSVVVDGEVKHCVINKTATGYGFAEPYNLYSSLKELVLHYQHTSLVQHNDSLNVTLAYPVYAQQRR
Description: HTRF assay, potency against active PI3Kβ. It counts as biochemical. The settings on record: [ATP]=50 μM, [di-C8-PIP2]=10 μM, 30 min pre-incubation, read-out: PI3Kβ Inhibition. On the procedure: Homogeneous Time Resolved Fluorescence (HTRF) Assay Protocol for Potency Assessment Against the Active Forms of PI3Kα, PI3Kβ, and PI3Kγ
The mechanics of the assay platform are best described by the vendor (Millipore, Billerica, Mass.) on their website at the following URL: www.millipore.com/coa/tech1/74jt4z.
Briefly, Stop solution (Stop A, #33-007 and Stop B, #33-009; 3:1 ratio) and Detection Mix (from DMC, #33-015 with DMA, #33-011 and DMB, #33-013; 18:1:1 ratio) were prepared as recommended by the manufacturer about 2 hrs prior to use. […] Lipid kinase reactions were started with the addition of 5 μL of ATP solution, mixed for 15 sec on a rotary plate shaker and incubated for 30-60 minutes at 25° C. Next, reactions were stopped with a 5 μL addition of Stop solution immediately followed by a 5 μL volume of Detection Mix. […] At the conclusion of each assay, the HTRF ratio from fluorescence emission values for each well was calculated and % Inhibition determined from averaged controls wells (+/−PI3K enzyme). % Inhibition values for each compound were then plotted against inhibitor concentration to estimate IC50 from log [Inhibitor] vs Response, Variable Slope model in GraphPad Prism from GraphPad Software (San Diego, Calif.).
A general note: In TR-FRET formats the signal depends on donor and acceptor labels being close together.

For test [3], the system named is Phospho-Akt(Ser473). The test is described as follows: Dose response in SKOV3 cells as determined by in-cell Western. It counts as cell-based. The essentials:
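SKOV3 cells treated with compound for 1 hr, then formaldehyde-fixed, permeabilised and stained overnight for phospho-Akt(Ser473) with anti-tubulin as a reference. Infrared secondary antibodies read at 680 and 800 nm channels by in-cell Western imaging.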

The target of another test is T3, PI3Kα (p110α/p85α) (Homo sapiens, UniProt P42336).
T3 construct: purchased BPS Bioscience (San Diego, Calif.) or Millipore (Billerica, Mass.)
T3 sequence (P42336 whole entry): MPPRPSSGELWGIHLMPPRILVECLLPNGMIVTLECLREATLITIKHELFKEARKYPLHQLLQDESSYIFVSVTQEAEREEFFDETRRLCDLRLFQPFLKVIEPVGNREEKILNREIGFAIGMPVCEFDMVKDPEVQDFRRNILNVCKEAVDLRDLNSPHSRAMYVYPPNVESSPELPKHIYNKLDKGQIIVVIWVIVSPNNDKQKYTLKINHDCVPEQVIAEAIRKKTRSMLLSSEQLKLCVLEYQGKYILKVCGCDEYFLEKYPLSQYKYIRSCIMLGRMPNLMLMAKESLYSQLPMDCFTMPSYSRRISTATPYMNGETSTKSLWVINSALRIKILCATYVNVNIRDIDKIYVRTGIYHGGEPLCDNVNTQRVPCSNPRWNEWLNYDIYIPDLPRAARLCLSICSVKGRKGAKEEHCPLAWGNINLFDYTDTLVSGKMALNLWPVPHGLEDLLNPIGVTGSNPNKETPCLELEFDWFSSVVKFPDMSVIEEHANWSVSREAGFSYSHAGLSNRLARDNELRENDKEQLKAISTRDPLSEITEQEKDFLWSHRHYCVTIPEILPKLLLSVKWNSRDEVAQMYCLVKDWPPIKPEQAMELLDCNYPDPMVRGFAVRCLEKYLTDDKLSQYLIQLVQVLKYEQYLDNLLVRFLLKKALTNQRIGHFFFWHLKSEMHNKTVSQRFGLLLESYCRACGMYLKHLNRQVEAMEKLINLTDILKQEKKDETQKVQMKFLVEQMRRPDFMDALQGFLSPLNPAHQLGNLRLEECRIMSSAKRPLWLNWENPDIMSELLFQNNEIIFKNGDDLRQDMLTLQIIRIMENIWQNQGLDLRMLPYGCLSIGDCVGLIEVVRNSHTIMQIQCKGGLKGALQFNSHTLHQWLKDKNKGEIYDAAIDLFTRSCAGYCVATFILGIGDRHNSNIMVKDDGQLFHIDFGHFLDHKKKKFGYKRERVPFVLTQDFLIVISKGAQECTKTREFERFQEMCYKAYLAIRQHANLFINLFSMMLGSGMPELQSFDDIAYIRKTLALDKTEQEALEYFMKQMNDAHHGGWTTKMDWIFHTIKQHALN
T3 sequence (P27986 whole entry partner): as the sequence (P27986 whole entry partner) above
Description: HTRF assay, potency against active PI3Kα. The test is classed as biochemical. The settings on record: HTRF; [ATP]=50 μM, [di-C8-PIP2]=10 μM; 30 min pre-incubation; read-out: PI3Kα Inhibition. The essentials:
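Active p110/p85α lipid kinase reactions were started with ATP and run 30-60 minutes at 25 °C, then stopped and developed with HTRF detection mix. HTRF ratio converted to % inhibition against ±enzyme controls; IC50 from log[inhibitor] vs response, variable slope.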

The test system of another test is PI3 kinase. The test is described as follows: Comparison of covalent and non-covalent inhibitors (Tables 18 and 19): prolonged PD, mechanism. On the procedure: “A” designates ≦10 nM; “B” designates 10-100 nM; and “C” designates 100-1000 nM
In the next test the target is p110alpha (Homo sapiens, UniProt P42336). The test is described as follows: In vitro occupancy in SKOV-3 cells with covalent probe. The test is classed as cell-based. The settings on record: for target occupancy (competition with the covalent probe): covalent probe XIV-a-3 or XIV-a-4.
p110alpha, sequence (P42336 whole entry): as the sequence (P42336 whole entry) above
Test [4] relates to Phospho-Akt(Ser473). Description: Dose response in SKOV3 cells as determined by Western blot. It counts as cell-based. The settings on record: Homo sapiens, SK-OV-3, 1 hr, Phospho-Akt normalized to total Akt, read-out: Immunoblot. On the procedure: Dose Response in SKOV3 Cells as Determined by Western Blot
SKOV3 cells were plated in SKOV3 Growth Media (DMEM supplemented with 10% FBS and pen/strep) at a density of 4×10^5 cells per well of 12 well plates. Twenty four hours later the media was removed and replaced with 1 ml media containing test compound and 0.1% DMSO and cells were returned to the incubator for 1 hr. At the end of the hour, the media was removed and the cells were washed with PBS, then lysed and scraped into 30 ul of Cell Extraction Buffer (Biosource, Camarillo, Calif.) plus Complete Protease Inhibitor and PhosStop Phosphatase Inhibitor (Roche, Indianapolis, Ind.).
Cell debris was spun down at 13,000×g for 1 minute and the supernatant was taken as the cell lysate. Protein concentration of the lysate was determined by BCA Assay (Pierce Biotechnology, Rockford, Ill.) and 50 ug of protein was loaded per well onto a NuPAGE Novex 4-12% Bis-Tris gel (Invitrogen, Carlsbad, Calif.) then transferred to Immobilon PVDF-FL (Millipore, Billerica, Mass.).
The blot was blocked in Odyssey Blocking Buffer (Li-Cor Biosciences, Lincoln, Nebr.) for 1 hr then incubated overnight at 4° C. with mouse anti-Akt (#2920) and rabbit anti-Phospho-Akt(Ser473) (#9271)(Cell Signaling Technology, Boston, Mass.) antibodies, both diluted 1:1000 in PBS/Odyssey Buffer (1:1)+0.1% Tween-20. The blots were washed 3 times 5 minutes in PBS+0.2% Tween-20 then incubated for 1 hr at room temperature with fluorescently labeled secondary antibodies (Li-Cor) diluted 1:10000 in PBS/Odyssey Buffer (1:1)+0.1% Tween-20.
The blots were washed 2 times for 5 minutes in PBS+0.2% Tween-20, once in distilled water, then scanned on an Odyssey machine (Li-Cor). Band intensity was determined using the Odyssey software and Phopho-Akt signal was normalized to total Akt within samples, then expressed as a percentage of the untreated Phospho-Akt signal.
(In general: In western blotting, separated proteins are transferred to a membrane and probed.)

For the next test, the system named is PI3K. Description: PI3K HCT116 cellular assay (Western blot). Conditions: Homo sapiens, HCT-116, HCT116 colon cancer cells, 1 hour incubation, read-out: PI3K Inhibition. It counts as cell-based. On the procedure: PI3K HCT116 Cellular Assay
Selected compounds were assayed in HCT116 colon cancer cells. […] Cells were then washed with PBS, lysed and the protein lysates were then recovered and analyzed by Western blot.

For the next test, the system named is SK-OV-3 cells. The test is described as follows: SK-OV-3 cell proliferation assay. The test is classed as cell-based. Conditions: Homo sapiens; SK-OV-3 proliferation, 72 hours, Cell Titer Glo. On the procedure: SK-OV-3 Cell Proliferation Assay
For the SK-OV-3 proliferation Assay, 5000 cells per well were plated in Growth Media (DMEM, 10% FBS, 1% 1-glutamine, 1% penicillin/streptomycin) in 96 well plates. The following day, compounds were added to duplicate wells at concentrations of 10 uM and 3-fold dilutions down to 40 nM. The plates were returned to the incubator for 72 hours and then the assays were developed using Cell Titer Glo (Promega, Madison, Wis.) according to manufacturer's instructions.
On the technique in general: In ATP-based viability assays light output follows the ATP content of the culture.

The test system of another test is SKOV-3 tumors. The test is described as follows: Tumor growth inhibition in vivo. The settings on record: nude mice, subcutaneous SKOV-3 tumors; GDC-941 orally, II-a-3 I.P., 50-100 mg/Kg/QD, 21 days. On the procedure:
Tumor Growth Inhibition In Vivo
The in vivo experiment was performed at Piedmont Research Center (Research Triangle Park, N.C.). Nude mice were implanted with SKOV-3 tumors subcutaneously. […] Dosing continued for 21 days. Tumor volume was measured twice a week.

The next test has as its system HCT116 cells. The test is described as follows: HCT-116 cell proliferation assay. It counts as cell-based. The settings on record: Homo sapiens, 72 hours, Cell Titer Glo. On the procedure:
HCT-116 Cell Proliferation Assay
For the HCT116 Proliferation Assay, 3000 cells per well were plated in Growth Media (DMEM, 10% FBS, 1% 1-glutamine, 1% penicillin/streptomycin) in 96 well plates. The following day, compounds were added to duplicate wells at concentrations of 10 uM and 3-fold dilutions down to 40 nM. The plates were returned to the incubator for 72 hours and then the assays were developed using Cell Titer Glo (Promega, Madison, Wis.) according to manufacturer's instructions.

[5] abbreviates: SKOV3 cells, 96 hours, Cell Titer Glo.
[6] abbreviates: Homo sapiens, SK-OV-3, SKOV3 cells, 1 hr, read-out: pAKT Inhibition in cell Western.

T1 sequence (P42336 whole entry): as above
T1 sequence (P27986 whole entry partner): as the sequence (P27986 whole entry partner) above
Description for p110alpha: 150 ug of protein sample was added to a 0.2 ml tube and the volume brought up to 100 ul with IP Buffer from the Protein A/G Plate IP Kit (Pierce Biotechnology, Rockford, Ill.). XIV-a-3 was added at a concentration of 1 uM or XIV-a-4 was added at 50 nM and the tube was incubated at room temperature with rocking for 1 hr.
Protein A/G coated wells from the Protein A/G Plate IP Kit were washed 3× with 200 ul of IP Buffer. […] After incubating at room temperature with shaking for 1 hour, the wells were washed 5× with 200 ul of IP Buffer and the protein samples, preincubated with XIV-a-3, were added to the wells. The wells were incubated overnight at 4° C. with shaking.
The next morning, the wells were washed 5× with 200 ul of IP Buffer. The last wash was allowed to stand for 5 minutes before removal. The immuoprecipitate was eluted from the plate with 40 ul of Pierce Elution Buffer for 30 seconds, after which time the eluate was moved to a 1.5 ml tube containing 4 ul of Pierce Neutralization Buffer. 15 ul of NuPAGE LDS Sample Buffer and 6 ul of NuPAGE Sample Reducing Agent (Invitrogen, Carlsbad, Calif.) were added to each tube and the samples were incubated at 70° C. for 5 minutes.
The blot was rinsed once in water, then incubated for 2 minutes in Qentix Solution 1 (Pierce Biotechnology) followed by 5 rinses in water. The blot was then incubated for 10 minutes in Qentix solution 2, rinsed 5 times in water then blocked in Odyssey Blocking Buffer (Li-Cor) for an hour.
The blot was then incubated overnight at 4° C. with rabbit anti-p110 alpha antibody (Epitomics, Burlingame, Calif.) diluted 1:2500 in PBS/Odyssey Buffer (1:1)+0.1% Tween-20. […]
The blots were washed 2 times for 5 minutes in PBS+0.2% Tween-20, once in distilled water, then scanned on an Odyssey machine (Li-Cor, Lincoln, Nebr.). Band intensity was determined using the Odyssey software and streptavidin (Tool) signal was normalized to total p110 alpha signal within samples, then expressed as a percentage of the untreated signal.

In the case of `C=CC(=O)Nc1ccc(C(=O)N2CC=C(c3cc4nc(-c5cccc6[nH]ncc56)nc(N5CCOCC5)c4s3)CC2)cc1` [II-a-144, N-(4-(4-(2-(1H-indazol-4-yl)-4-morpholinothieno[3,2-d]pyrimidin-6-yl)-1,2,3,6-tetrahydropyridine-1-carbonyl)phenyl)acrylamide], the 50% growth inhibitory concentration (GI50) (in general, the concentration giving 50% growth inhibition) in the test on SKOV3 cells (setting [5]) is 0.1 to 1 µM. Also, on PI3Kα [1], the “covalent modification of PI3Kα” value is given as “complete modification; also recorded: covalent modification”; the “mass shift of PI3Kα” value was found to be 575 Da; the “mass shift of PI3Kα, per cent in brackets” value is given as 97%. Moreover, the “site on PI3Kα that is covalently modified” value on PI3Kα [2] is reported as “Cys-862; also recorded: peptide ^853NSHTIMQIQCK^863”. In addition, the IC50 on PI3Kβ (p110β/p85α) lay within 0.1 to 1 µM. For the same compound, the EC50 with Phospho-Akt(Ser473) [3] (setting [6]) fell in the range of 0.1 to 1 µM. At PI3Kα (p110α/p85α), the IC50 is 0.1 to 1 µM.

Consider `C=CC(=O)Nc1ccc(CCNC(=O)c2cc3nc(-c4cccc5[nH]ncc45)nc(N4CCOCC4)c3s2)cc1` [II-a-148, N-(4-acrylamidophenethyl)-2-(1H-indazol-4-yl)-4-morpholinothieno[3,2-d]pyrimidine-6-carboxamide], for which the 50% growth inhibitory concentration (GI50) is 0.01 to 0.1 µM in the test with SKOV3 cells (setting [5]) and 0.01 to 0.1 µM with SKOV3 cells (Table 19, assay not given, classes agree with Table 26). Moreover, the “Prolonged PD” value in the test on PI3 kinase (Table 18) and in the test with PI3 kinase (Table 19) was “Yes” in each case. Besides, the “covalent modification of PI3Kα” value at PI3Kα [1] was “complete modification; also recorded: covalent modification”. Besides, the “mass shift of PI3Kα” value on PI3Kα [1] is 472 Da. Further, the “mass shift of PI3Kα, per cent in brackets” value on PI3Kα [1] came out at 85%. In addition, the IC50 was more than 1 µM on PI3Kβ (p110β/p85α) and 0.1 to 1 µM at PI3Kα (p110α/p85α). Besides, on p110alpha, the “target occupancy (competition with the covalent probe)” value was “Dose-dependent target occupancy”. Moreover, the EC50 on p110alpha (read-out: EC50 for occupying p110alpha, covalent probe XIV-a-3 or XIV-a-4) is approximately 0.04 µM; in the test with Phospho-Akt(Ser473) [3] (setting [6]), 0.01 to 0.1 µM; in the test with Phospho-Akt(Ser473) [3] (Homo sapiens, SK-OV-3, Table 18, assay not given, classes agree with Table 23, read-out: EC50 pAkt^Ser473), 0.01 to 0.1 µM; with Phospho-Akt(Ser473) [3] (Table 19, assay not given, classes agree with Table 23, read-out: EC50 pAkt^Ser473), 0.01 to 0.1 µM; in the test on Phospho-Akt(Ser473) [4], not above 0.01 µM.

For `CS(=O)(=O)N1CCN(Cc2cc3nc(-c4cccc5[nH]ncc45)nc(N4CCOCC4)c3s2)CC1` [GDC-941, reference compound], the “Prolonged PD” value in the test with PI3 kinase (Table 19) is “No”. For the same compound, at p110alpha, the “target occupancy (competition with the covalent probe)” value is reported as “does not compete with the covalent probe”. Moreover, the figures for the EC50 in the test on PI3K, in the test with SK-OV-3 cells and in the test on HCT116 cells were […], 1 to 10 µM and 1 to 10 µM, respectively. Besides, the tumor growth result in the test on SKOV-3 tumors is “Inhibition of tumor growth”.
